# PubChem BioAssay (NCI)
#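 A five-concentration, 48-hour dose response in 96-well plates underlies each endpoint, interpolated linearly between surrounding concentrations. Here, GI50 denotes the concentration required for 50% inhibition of growth. The concentration for full growth arrest is given as TGI.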
# Tests used:
# Test in all cases: DTP human tumour cell line panel, 48 h
# 786-0 renal = system: 786-0 renal
# A549 NSCLC = system: A549 NSCLC
# ACHN renal = system: ACHN renal
# BT-549 breast = system: BT-549 breast
# CAKI-1 renal = system: CAKI-1 renal
# CCRF-CEM leukemia = system: CCRF-CEM leukemia
# COLO 205 colon = system: COLO 205 colon
# DU-145 prostate = system: DU-145 prostate
# EKVX NSCLC = system: EKVX NSCLC
# HCC-2998 colon = system: HCC-2998 colon
# HCT-116 colon = system: HCT-116 colon
# HCT-15 colon = system: HCT-15 colon
# HL-60(TB) leukemia = system: HL-60(TB) leukemia
# HOP-62 NSCLC = system: HOP-62 NSCLC
# HOP-92 NSCLC = system: HOP-92 NSCLC
# HT29 colon = system: HT29 colon
# K-562 leukemia = system: K-562 leukemia
# KM12 colon = system: KM12 colon
# LOX IMVI melanoma = system: LOX IMVI melanoma
# M14 melanoma = system: M14 melanoma
# MALME-3M melanoma = system: MALME-3M melanoma
# MCF7 breast = system: MCF7 breast
# MDA-MB-231 breast = system: MDA-MB-231 breast
# MDA-MB-435 = system: MDA-MB-435
# MDA-N = system: MDA-N
# MOLT-4 leukemia = system: MOLT-4 leukemia
# NCI-H23 lung = system: NCI-H23 lung
# NCI-H460 lung = system: NCI-H460 lung
# NCI/ADR-RES ovarian = system: NCI/ADR-RES ovarian
# OVCAR-3 ovarian = system: OVCAR-3 ovarian
# OVCAR-4 ovarian = system: OVCAR-4 ovarian
# OVCAR-5 ovarian = system: OVCAR-5 ovarian
# OVCAR-8 ovarian = system: OVCAR-8 ovarian
# PC-3 prostate = system: PC-3 prostate
# RPMI-8226 leukemia = system: RPMI-8226 leukemia
# SF-295 CNS = system: SF-295 CNS
# SK-MEL-2 melanoma = system: SK-MEL-2 melanoma
# SK-MEL-28 melanoma = system: SK-MEL-28 melanoma
# SK-MEL-5 melanoma = system: SK-MEL-5 melanoma
# SN12C renal = system: SN12C renal
# SNB-19 CNS = system: SNB-19 CNS
# SR leukemia = system: SR leukemia
# TK-10 renal = system: TK-10 renal
# U251 CNS = system: U251 CNS
# UACC-257 melanoma = system: UACC-257 melanoma
# UO-31 renal = system: UO-31 renal
# A498 renal = system: A498 renal
# HS 578T breast = system: HS 578T breast
# IGROV1 ovarian = system: IGROV1 ovarian
# NCI-H226 lung = system: NCI-H226 lung
# NCI-H522 lung = system: NCI-H522 lung
# RXF 393 renal = system: RXF 393 renal
# SF-268 CNS = system: SF-268 CNS
# SF-539 CNS = system: SF-539 CNS
# SK-OV-3 ovarian = system: SK-OV-3 ovarian
# SW-620 colon = system: SW-620 colon
# UACC-62 melanoma = system: UACC-62 melanoma
# SNB-75 CNS = system: SNB-75 CNS
# T-47D breast = system: T-47D breast
structure (smiles),measurement,setting,value
O=c1[nH]nc(Nc2ccccc2)c2nnn(C3CCCCC3)c12,TGI,786-0 renal,> 100 µM
same,TGI,A549 NSCLC,> 100 µM
same,TGI,ACHN renal,> 100 µM
same,TGI,BT-549 breast,> 100 µM
same,TGI,CAKI-1 renal,> 100 µM
same,TGI,CCRF-CEM leukemia,> 100 µM
same,TGI,COLO 205 colon,> 100 µM
same,TGI,DU-145 prostate,> 100 µM
same,TGI,EKVX NSCLC,> 100 µM
same,TGI,HCC-2998 colon,> 100 µM
same,TGI,HCT-116 colon,> 100 µM
same,TGI,HCT-15 colon,> 100 µM
same,TGI,HL-60(TB) leukemia,> 100 µM
same,TGI,HOP-62 NSCLC,> 100 µM
same,TGI,HOP-92 NSCLC,> 100 µM
same,TGI,HT29 colon,> 100 µM
same,TGI,K-562 leukemia,> 100 µM
same,TGI,KM12 colon,> 100 µM
same,TGI,LOX IMVI melanoma,> 100 µM
same,TGI,M14 melanoma,> 100 µM
same,TGI,MALME-3M melanoma,> 100 µM
same,TGI,MCF7 breast,> 100 µM
same,TGI,MDA-MB-231 breast,> 100 µM
same,TGI,MDA-MB-435,> 100 µM
same,TGI,MDA-N,> 100 µM
same,TGI,MOLT-4 leukemia,> 100 µM
same,TGI,NCI-H23 lung,> 100 µM
same,TGI,NCI-H460 lung,> 100 µM
same,TGI,NCI/ADR-RES ovarian,> 100 µM
same,TGI,OVCAR-3 ovarian,> 100 µM
same,TGI,OVCAR-4 ovarian,> 100 µM
same,TGI,OVCAR-5 ovarian,> 100 µM
same,TGI,OVCAR-8 ovarian,> 100 µM
same,TGI,PC-3 prostate,> 100 µM
same,TGI,RPMI-8226 leukemia,> 100 µM
same,TGI,SF-295 CNS,> 100 µM
same,TGI,SK-MEL-2 melanoma,> 100 µM
same,TGI,SK-MEL-28 melanoma,> 100 µM
same,TGI,SK-MEL-5 melanoma,> 100 µM
same,TGI,SN12C renal,> 100 µM
same,TGI,SNB-19 CNS,> 100 µM
same,TGI,SR leukemia,> 100 µM
same,TGI,TK-10 renal,> 100 µM
same,TGI,U251 CNS,> 100 µM
same,TGI,UACC-257 melanoma,> 100 µM
same,TGI,UO-31 renal,> 100 µM
Cc1[nH]c(N)nc(=S)c1CCC(=O)O,TGI,786-0 renal,> 100 µM
same,TGI,A498 renal,> 100 µM
same,TGI,A549 NSCLC,> 100 µM
same,TGI,ACHN renal,> 100 µM
same,TGI,BT-549 breast,> 100 µM
same,TGI,CAKI-1 renal,> 100 µM
same,TGI,CCRF-CEM leukemia,> 100 µM
same,TGI,COLO 205 colon,> 100 µM
same,TGI,DU-145 prostate,> 100 µM
same,TGI,EKVX NSCLC,> 100 µM
same,TGI,HCC-2998 colon,> 100 µM
same,TGI,HCT-116 colon,> 100 µM
same,TGI,HCT-15 colon,> 100 µM
same,TGI,HL-60(TB) leukemia,> 100 µM
same,TGI,HOP-62 NSCLC,> 100 µM
same,TGI,HOP-92 NSCLC,> 100 µM
same,TGI,HS 578T breast,> 100 µM
same,TGI,HT29 colon,> 100 µM
same,TGI,IGROV1 ovarian,> 100 µM
same,TGI,K-562 leukemia,> 100 µM
same,TGI,KM12 colon,> 100 µM
same,TGI,LOX IMVI melanoma,> 100 µM
same,TGI,M14 melanoma,> 100 µM
same,TGI,MALME-3M melanoma,> 100 µM
same,TGI,MCF7 breast,> 100 µM
same,TGI,MDA-MB-231 breast,> 100 µM
same,TGI,MDA-MB-435,> 100 µM
same,TGI,MDA-N,> 100 µM
same,TGI,MOLT-4 leukemia,> 100 µM
same,TGI,NCI-H226 lung,> 100 µM
same,TGI,NCI-H23 lung,> 100 µM
same,TGI,NCI-H460 lung,> 100 µM
same,TGI,NCI-H522 lung,> 100 µM
same,TGI,NCI/ADR-RES ovarian,> 100 µM
same,TGI,OVCAR-3 ovarian,> 100 µM
same,TGI,OVCAR-4 ovarian,> 100 µM
same,TGI,OVCAR-5 ovarian,> 100 µM
same,TGI,OVCAR-8 ovarian,> 100 µM
same,TGI,PC-3 prostate,> 100 µM
same,TGI,RPMI-8226 leukemia,> 100 µM
same,TGI,RXF 393 renal,> 100 µM
same,TGI,SF-268 CNS,> 100 µM
same,TGI,SF-295 CNS,> 100 µM
same,TGI,SF-539 CNS,> 100 µM
same,TGI,SK-MEL-2 melanoma,> 100 µM
same,TGI,SK-MEL-28 melanoma,> 100 µM
same,TGI,SK-MEL-5 melanoma,> 100 µM
same,TGI,SK-OV-3 ovarian,> 100 µM
same,TGI,SN12C renal,> 100 µM
same,TGI,SNB-19 CNS,> 100 µM
same,TGI,SR leukemia,> 100 µM
same,TGI,SW-620 colon,> 100 µM
same,TGI,TK-10 renal,> 100 µM
same,TGI,U251 CNS,> 100 µM
same,TGI,UACC-257 melanoma,> 100 µM
same,TGI,UACC-62 melanoma,> 100 µM
same,TGI,UO-31 renal,> 100 µM
CCOC(=O)/C=C(\C(=O)OCC)n1cc(Cl)c(=O)n(CC(=O)OCC)c1=O,TGI,786-0 renal,3.14 µM
same,TGI,A498 renal,34.9 µM
same,TGI,A549 NSCLC,45.8 µM
same,TGI,ACHN renal,3.02 µM
same,TGI,BT-549 breast,35.5 µM
same,TGI,CAKI-1 renal,5.27 µM
same,GI50,CCRF-CEM leukemia,16.5 µM
same,TGI,CCRF-CEM leukemia,36.1 µM
same,TGI,COLO 205 colon,1.86 µM
same,TGI,DU-145 prostate,31.1 µM
same,TGI,EKVX NSCLC,30.9 µM
same,TGI,HCC-2998 colon,37.5 µM
same,TGI,HCT-116 colon,4.94 µM
same,TGI,HCT-15 colon,13.4 µM
same,TGI,HL-60(TB) leukemia,7.39 µM
same,TGI,HOP-62 NSCLC,33.7 µM
same,TGI,HOP-92 NSCLC,5.28 µM
same,TGI,HS 578T breast,> 100 µM
same,TGI,HT29 colon,38.3 µM
same,TGI,IGROV1 ovarian,25.9 µM
same,TGI,K-562 leukemia,4.23 µM
same,TGI,KM12 colon,34.9 µM
same,TGI,LOX IMVI melanoma,11.2 µM
same,TGI,M14 melanoma,10.2 µM
same,TGI,MALME-3M melanoma,3.85 µM
same,TGI,MCF7 breast,8.07 µM
same,TGI,MDA-MB-231 breast,30.3 µM
same,TGI,MDA-MB-435,35.5 µM
same,TGI,MDA-N,24 µM
same,TGI,MOLT-4 leukemia,6.05 µM
same,TGI,NCI-H226 lung,31.7 µM
same,TGI,NCI-H23 lung,42.6 µM
same,TGI,NCI-H460 lung,51.1 µM
same,TGI,NCI-H522 lung,1.85 µM
same,TGI,NCI/ADR-RES ovarian,> 93.8 µM
same,TGI,OVCAR-3 ovarian,8.69 µM
same,TGI,OVCAR-4 ovarian,41.2 µM
same,TGI,OVCAR-5 ovarian,33.3 µM
same,TGI,OVCAR-8 ovarian,8.59 µM
same,TGI,PC-3 prostate,27.8 µM
same,TGI,RPMI-8226 leukemia,4.58 µM
same,TGI,RXF 393 renal,3.77 µM
same,TGI,SF-268 CNS,32.7 µM
same,TGI,SF-295 CNS,> 61.1 µM
same,TGI,SF-539 CNS,28.5 µM
same,TGI,SK-MEL-2 melanoma,32 µM
same,TGI,SK-MEL-28 melanoma,36.5 µM
same,TGI,SK-MEL-5 melanoma,29.1 µM
same,TGI,SK-OV-3 ovarian,33.9 µM
same,TGI,SN12C renal,28.8 µM
same,TGI,SNB-19 CNS,39 µM
same,TGI,SNB-75 CNS,35.9 µM
same,TGI,SW-620 colon,4.54 µM
same,TGI,T-47D breast,4.12 µM
same,TGI,TK-10 renal,3.6 µM
same,TGI,U251 CNS,29.6 µM
same,TGI,UACC-257 melanoma,10.2 µM
same,TGI,UACC-62 melanoma,24.6 µM
same,TGI,UO-31 renal,3.27 µM
Cc1c(Cl)cccc1N=NC(=O)NNc1cccc(Cl)c1C,TGI,786-0 renal,37.7 µM
same,TGI,A498 renal,27.7 µM
same,TGI,A549 NSCLC,45.2 µM
same,TGI,ACHN renal,45.3 µM
same,TGI,BT-549 breast,27.7 µM
same,TGI,CCRF-CEM leukemia,42.6 µM
same,TGI,DU-145 prostate,28.3 µM
same,TGI,HCC-2998 colon,31.1 µM
same,TGI,HCT-116 colon,28.6 µM
same,TGI,HCT-15 colon,30 µM
same,TGI,HL-60(TB) leukemia,38.1 µM
same,TGI,HOP-62 NSCLC,25.4 µM
same,TGI,HT29 colon,35.3 µM
same,TGI,IGROV1 ovarian,19.6 µM
same,TGI,K-562 leukemia,40.5 µM
same,TGI,LOX IMVI melanoma,35.7 µM
same,TGI,M14 melanoma,35.7 µM
same,TGI,MALME-3M melanoma,30.8 µM
same,TGI,MDA-MB-231 breast,37.1 µM
same,TGI,MDA-MB-435,34.5 µM
same,TGI,MDA-N,31 µM
same,TGI,MOLT-4 leukemia,46.7 µM
same,TGI,NCI-H226 lung,32.6 µM
same,TGI,NCI-H23 lung,33.2 µM
same,TGI,NCI-H460 lung,31.2 µM
same,TGI,NCI-H522 lung,39.8 µM
same,TGI,OVCAR-3 ovarian,31.4 µM
same,TGI,OVCAR-4 ovarian,25.9 µM
same,TGI,OVCAR-5 ovarian,27.1 µM
same,TGI,OVCAR-8 ovarian,26.6 µM
same,TGI,PC-3 prostate,26.1 µM
same,TGI,RPMI-8226 leukemia,> 100 µM
same,TGI,SF-268 CNS,31.8 µM
same,TGI,SK-MEL-2 melanoma,26.4 µM
same,TGI,SK-MEL-28 melanoma,30.1 µM
same,TGI,SK-MEL-5 melanoma,28.6 µM
same,TGI,SN12C renal,32.4 µM
same,TGI,SNB-19 CNS,41.9 µM
same,TGI,SNB-75 CNS,32.5 µM
same,TGI,SR leukemia,95 µM
same,TGI,SW-620 colon,30.8 µM
same,TGI,T-47D breast,24.2 µM
same,TGI,TK-10 renal,29.6 µM
same,TGI,U251 CNS,29.7 µM
same,TGI,UACC-257 melanoma,42.1 µM
same,TGI,UACC-62 melanoma,25.5 µM
same,TGI,UO-31 renal,26.3 µM
